Test results published in patent publication US20250228861A1, “Cancer Treatments Using MTA-Cooperative PRMT5 Inhibitors” (AMGEN INC., priority 2022, published 2025).

Experiments:
MIAPACA2T2 cells [1] = test: Combination with gemcitabine, CellTiter-Glo viability, Fa and CalcuSyn CI; type: cell-based; conditions: 6 days
Method: (§1) Cell viability was measured by the CellTiter-Glo Luminescence assay. Raw luminescent values were converted to fraction affected (Fa) with the following equation:
(§2) Synergy analysis was performed using the CalcuSyn software to determine CI scores based on the drug concentrations used and corresponding Fa values.

H292 cells [2] = test: Combination with paclitaxel, CellTiter-Glo viability, Fa and CalcuSyn CI; type: cell-based; conditions: 6 days;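 also: fa derived from raw luminescence, CI computed in CalcuSyn from drug concentrations and Fa, with CI under 0.9 indicating synergism and 0.9 to 1.1 nearly additive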
Method: as §1, §2

A549 cells [3] = test: as above; type: cell-based; conditions: 6 days
Method: as §1, §2

PSN1 cells = test: Combination with irinotecan, CellTiter-Glo viability, Fa and CalcuSyn CI; type: cell-based; conditions: 6 days
Method: as §1, §2

H292 NSCLC xenografts = test: H292 NSCLC xenografts, combination with chemotherapy; type: in vivo, mice; conditions: 100 mg/kg orally once daily + paclitaxel 20 mg/kg IP
H292 cells [4] = test: Combination with pemetrexed, CellTiter-Glo viability, Fa and CalcuSyn CI; conditions: 6 days;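 also: fa derived from CellTiter-Glo luminescence signal, CI calculated in CalcuSyn from doses and Fa, with 0.9–1.1 nearly additive and smaller values indicating synergism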
Method: as §1, §2

MIAPACA2T2 cells [5] = test: Combination with irinotecan, CellTiter-Glo viability, Fa and CalcuSyn CI; type: cell-based; conditions: 6 days
Method: as §1, §2

A549 cells [6] = test: Combination with pemetrexed, CellTiter-Glo viability, Fa and CalcuSyn CI; conditions: 6 days;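 also: fa derived from raw CellTiter-Glo luminescence, CI computed by CalcuSyn from drug concentrations and Fa, with values below 0.9 meaning synergism and 0.9–1.1 nearly additive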
Method: as §1, §2

MIAPACA2T2 cells [7] = test: Combination with carboplatin, CellTiter-Glo viability, Fa and CalcuSyn CI; type: cell-based; conditions: 6 days
Method: as §1, §2

[8] = Compound G 0.831 μM fixed + Gemcitabine 0.001322 μM
[9] = Compound G 0.831 μM fixed + Gemcitabine 0.001784 μM
[10] = Compound G 0.831 μM fixed + Gemcitabine 0.002409 μM
[11] = Compound G 0.831 μM fixed + Gemcitabine 0.003252 μM
[12] = Compound G 0.831 μM fixed + Gemcitabine 0.00439 μM
[13] = Compound G 0.831 μM fixed + Gemcitabine 0.005926 μM
[14] = Compound G 0.831 μM fixed + Gemcitabine 0.008 μM
[15] = Compound G 0.437382 μM fixed + Paclitaxel 0.0005 μM
[16] = Compound G 0.437382 μM fixed + Paclitaxel 0.0007 μM
[17] = Compound G 0.437382 μM fixed + Paclitaxel 0.0009 μM
[18] = Compound G 0.437382 μM fixed + Paclitaxel 0.0011 μM
[19] = Compound G 0.437382 μM fixed + Paclitaxel 0.0015 μM
[20] = Compound G 0.437382 μM fixed + Paclitaxel 0.0019 μM
[21] = Compound G 0.437382 μM fixed + Paclitaxel 0.0025 μM
[22] = Compound G 0.0213 μM fixed + Irinotecan 0.035117 μM
[23] = Compound G 0.0213 μM fixed + Irinotecan 0.052675 μM
[24] = Compound G 0.0213 μM fixed + Irinotecan 0.079012 μM
[25] = Compound G 0.0213 μM fixed + Irinotecan 0.118519 μM
[26] = Compound G 0.0213 μM fixed + Irinotecan 0.177778 μM
[27] = Compound G 0.0213 μM fixed + Irinotecan 0.266667 μM
[28] = Compound G 0.0213 μM fixed + Irinotecan 0.4 μM
[29] = Compound G 0.437382 μM fixed + Pemetrexed 0.082858 μM
[30] = Compound G 0.437382 μM fixed + Pemetrexed 0.140859 μM
[31] = Compound G 0.437382 μM fixed + Pemetrexed 0.239461 μM
[32] = Compound G 0.437382 μM fixed + Pemetrexed 0.407083 μM
[33] = Compound G 0.437382 μM fixed + Pemetrexed 0.692042 μM
[34] = Compound G 0.437382 μM fixed + Pemetrexed 1.17647 μM
[35] = Compound G 0.437382 μM fixed + Pemetrexed 2 μM
[36] = Compound G 0.83102 μM fixed + Irinotecan 0.131072 μM
[37] = Compound G 0.83102 μM fixed + Irinotecan 0.16384 μM
[38] = Compound G 0.83102 μM fixed + Irinotecan 0.2048 μM
[39] = Compound G 0.83102 μM fixed + Irinotecan 0.256 μM
[40] = Compound G 0.83102 μM fixed + Irinotecan 0.4 μM
[41] = Compound G 0.83102 μM fixed + Irinotecan 0.5 μM
[42] = Compound G 0.83102 μM fixed + Irinotecan […]
[43] = Compound G 0.831 μM fixed + Carboplatin 2.47793 μM
[44] = Compound G 0.831 μM fixed + Carboplatin 3.3452 μM
[45] = Compound G 0.831 μM fixed + Carboplatin 4.51602 μM
[46] = Compound G 0.831 μM fixed + Carboplatin 6.09663 μM
[47] = Compound G 0.831 μM fixed + Carboplatin 8.23045 μM
[48] = Compound G 0.831 μM fixed + Carboplatin 11.1111 μM
[49] = Compound G 0.831 μM fixed + Carboplatin 15 μM

SMILES: Nc1nc2cnc(C(=O)N3CCOC[C@@H]3c3ccc(C(F)(F)F)cc3)cc2c2c1COC2 [Compound G]
- Combination Fa (MIAPACA2T2 cells [1]; [8]): 0.599
- Computed CI value (MIAPACA2T2 cells [1]; [8]): 1.117
- Combination Fa (MIAPACA2T2 cells [1]; [9]): 0.66
- Computed CI value (MIAPACA2T2 cells [1]; [9]): 1.094
- Combination Fa (MIAPACA2T2 cells [1]; [10]): 0.787
- Computed CI value (MIAPACA2T2 cells [1]; [10]): 0.962
- Combination Fa (MIAPACA2T2 cells [1]; [11]): 0.93
- Computed CI value (MIAPACA2T2 cells [1]; [11]): 0.793
- Combination Fa (MIAPACA2T2 cells [1]; [12]): 0.969
- Computed CI value (MIAPACA2T2 cells [1]; [12]): 0.825
- Combination Fa (MIAPACA2T2 cells [1]; [13]): 0.989
- Computed CI value (MIAPACA2T2 cells [1]; [13]): 0.826
- Combination Fa (MIAPACA2T2 cells [1]; [14]): 0.993
- Computed CI value (MIAPACA2T2 cells [1]; [14]): 0.981
- Combination Fa (H292 cells [2]; [15]): 0.6656
- Computed CI value (H292 cells [2]; [15]): 0.92
- Combination Fa (H292 cells [2]; [16]): 0.7749
- Computed CI value (H292 cells [2]; [16]): 0.728
- Combination Fa (H292 cells [2]; [17]): 0.8617
- Computed CI value (H292 cells [2]; [17]): 0.658
- Combination Fa (H292 cells [2]; [18]): 0.8929
- Computed CI value (H292 cells [2]; [18]): 0.704
- Combination Fa (H292 cells [2]; [19]): 0.9417
- Computed CI value (H292 cells [2]; [19]): 0.749
- Combination Fa (H292 cells [2]; [20]): 0.957
- Computed CI value (H292 cells [2]; [20]): 0.85
- Combination Fa (H292 cells [2]; [21]): 0.974
- Computed CI value (H292 cells [2]; [21]): 0.94
- Combination Fa (A549 cells [3]; [15]): 0.6362
- Computed CI value (A549 cells [3]; [15]): 0.639
- Combination Fa (A549 cells [3]; [16]): 0.6087
- Computed CI value (A549 cells [3]; [16]): 0.863
- Combination Fa (A549 cells [3]; [17]): 0.7048
- Computed CI value (A549 cells [3]; [17]): 0.786
- Combination Fa (A549 cells [3]; [18]): 0.7817
- Computed CI value (A549 cells [3]; [18]): 0.77
- Combination Fa (A549 cells [3]; [19]): 0.9048
- Computed CI value (A549 cells [3]; [19]): 0.736
- Combination Fa (A549 cells [3]; [20]): 0.95
- Computed CI value (A549 cells [3]; [20]): 0.759
- Combination Fa (A549 cells [3]; [21]): 0.9687
- Computed CI value (A549 cells [3]; [21]): 0.869
- Combination Fa (PSN1 cells; [22]): 0.4007
- Computed CI value (PSN1 cells; [22]): 0.981
- Combination Fa (PSN1 cells; [23]): 0.3585
- Computed CI value (PSN1 cells; [23]): 1.28
- Combination Fa (PSN1 cells; [24]): 0.4649
- Computed CI value (PSN1 cells; [24]): 1.168
- Combination Fa (PSN1 cells; [25]): 0.6137
- Computed CI value (PSN1 cells; [25]): 1.087
- Combination Fa (PSN1 cells; [26]): 0.8505
- Computed CI value (PSN1 cells; [26]): 0.852
- Combination Fa (PSN1 cells; [27]): 0.9402
- Computed CI value (PSN1 cells; [27]): 0.836
- Combination Fa (PSN1 cells; [28]): 0.9731
- Computed CI value (PSN1 cells; [28]): 0.916
- anti-tumor activity of combination with paclitaxel (H292 NSCLC xenografts): significant anti-tumor activity versus either single agent alone
- Combination Fa (H292 cells [4]; [29]): 0.602
- Computed CI value (H292 cells [4]; [29]): 1.359
- Combination Fa (H292 cells [4]; [30]): 0.63
- Computed CI value (H292 cells [4]; [30]): 1.184
- Combination Fa (H292 cells [4]; [31]): 0.678
- Computed CI value (H292 cells [4]; [31]): 0.914
- Combination Fa (H292 cells [4]; [32]): 0.741
- Computed CI value (H292 cells [4]; [32]): 0.64
- Combination Fa (H292 cells [4]; [33]): 0.827
- Computed CI value (H292 cells [4]; [33]): 0.342
- Combination Fa (H292 cells [4]; [34]): 0.885
- Computed CI value (H292 cells [4]; [34]): 0.216
- Combination Fa (H292 cells [4]; [35]): 0.904
- Computed CI value (H292 cells [4]; [35]): 0.235
- Combination Fa (MIAPACA2T2 cells [5]; [36]): 0.718
- Computed CI value (MIAPACA2T2 cells [5]; [36]): 0.691
- Combination Fa (MIAPACA2T2 cells [5]; [37]): 0.7359
- Computed CI value (MIAPACA2T2 cells [5]; [37]): 0.751
- Combination Fa (MIAPACA2T2 cells [5]; [38]): 0.8028
- Computed CI value (MIAPACA2T2 cells [5]; [38]): 0.72
- Combination Fa (MIAPACA2T2 cells [5]; [39]): 0.8794
- Computed CI value (MIAPACA2T2 cells [5]; [39]): 0.677
- Combination Fa (MIAPACA2T2 cells [5]; [40]): 0.9677
- Computed CI value (MIAPACA2T2 cells [5]; [40]): 0.655
- Combination Fa (MIAPACA2T2 cells [5]; [41]): 0.9854
- Computed CI value (MIAPACA2T2 cells [5]; [41]): 0.649
- Combination Fa (MIAPACA2T2 cells [5]; [42]): 0.9132
- Computed CI value (MIAPACA2T2 cells [5]; [42]): 0.729
- Combination Fa (A549 cells [6]; [29]): 0.669
- Computed CI value (A549 cells [6]; [29]): 0.846
- Combination Fa (A549 cells [6]; [30]): 0.651
- Computed CI value (A549 cells [6]; [30]): 1.064
- Combination Fa (A549 cells [6]; [31]): 0.693
- Computed CI value (A549 cells [6]; [31]): 0.882
- Combination Fa (A549 cells [6]; [32]): 0.712
- Computed CI value (A549 cells [6]; [32]): 0.922
- Combination Fa (A549 cells [6]; [33]): 0.834
- Computed CI value (A549 cells [6]; [33]): 0.363
- Combination Fa (A549 cells [6]; [34]): 0.918
- Computed CI value (A549 cells [6]; [34]): 0.132
- Combination Fa (A549 cells [6]; [35]): 0.948
- Computed CI value (A549 cells [6]; [35]): 0.087
- Combination Fa (MIAPACA2T2 cells [7]; [43]): 0.711
- Computed CI value (MIAPACA2T2 cells [7]; [43]): 0.599
- Combination Fa (MIAPACA2T2 cells [7]; [44]): 0.766
- Computed CI value (MIAPACA2T2 cells [7]; [44]): 0.521
- Combination Fa (MIAPACA2T2 cells [7]; [45]): 0.832
- Computed CI value (MIAPACA2T2 cells [7]; [45]): 0.437
- Combination Fa (MIAPACA2T2 cells [7]; [46]): 0.881
- Computed CI value (MIAPACA2T2 cells [7]; [46]): 0.402
- Combination Fa (MIAPACA2T2 cells [7]; [47]): 0.939
- Computed CI value (MIAPACA2T2 cells [7]; [47]): 0.322
- Combination Fa (MIAPACA2T2 cells [7]; [48]): 0.963
- Computed CI value (MIAPACA2T2 cells [7]; [48]): 0.313
- Combination Fa (MIAPACA2T2 cells [7]; [49]): 0.966
- Computed CI value (MIAPACA2T2 cells [7]; [49]): 0.396
